What was measured:
Format in all cases: cell-based
MCF-10A = assay: MTT cell viability, non-tumor cell line MCF-10A; conditions: Homo sapiens, MCF-10A, 48 h, 1.25–160 μM, read-out: IC50 MCF-10A
Protocol: (§1) Four different breast cells lines were used in this study: MCF-10A (non-tumorigenic), MCF7 (ER+ BC), MDA-MB453 (HER2+ BC) and MDA-MB231 (TNBC). All lineages were obtained from the American Type Culture Collection (ATCC; Manassas, VA, USA) and maintained at a temperature of 37 °C according to the supplier’s recommendations. Only MDA-MB231 cells were not kept in an atmosphere of 5% CO2. MCF-10A was grown in Dulbecco’s Modified Eagle’s Medium (DMEM F12, Gibco, ThermoFisher Scientific, Waltham, MA, USA) supplemented with 20 ng/mL epidermal growth factor (Gibco, ThermoFisher Scientific, Waltham, MA, USA), 0.5 μg/mL hydrocortisone (Sigma-Aldrich, Sigma-Aldrich, St. Louis, MO, USA) and 10 μg/mL insulin (Gibco, ThermoFisher Scientific, Waltham, MA, USA). MCF7 was cultivated in Roswell Park Memorial Institute Medium (RPMI-1640, Gibco, ThermoFisher Scientific, Waltham, MA, USA), MDA-MB453 in IMDM and MDA-MB231 in Leibovitz’s medium (L-15, Gibco, ThermoFisher Scientific, Waltham, MA, USA). All media were supplemented with 10% fetal bovine serum (FBS, Gibco, ThermoFisher Scientific, Waltham, MA, USA) and 50 µg/mL of gentamicin (Cultilab, Campinas, SP, Brazil). The cells were confirmed to be free of mycoplasma and passaged using a 0.25% trypsin-EDTA solution when confluency reached 80–90%.
(§2) Cell viability was determined by spectrophotometric quantification of MTT (3-[4,5-dimethyl-thiazol-2-yl]-2,5-diphenyltetrazolium bromide—Invitrogen. Waltham, MA, USA) reduction to formazan crystals. Cells were seeded at the density of 1 × 10^4 cells/well (MCF-10A, MDA-MB453), 1.5 × 10^4 cells/well (MDA-MB231) and 3 × 10^3 cells/well (MCF7) in 96-well culture dishes and incubated with different concentrations of the compounds (1.25, 2.5, 5, 10, 20, 40, 80 and 160 µM) for 48 h. The medium was than replaced by MTT solution (0.5 mg/mL) and plates were kept at 37 °C for 4 h. After the aspiration of the media, the formazan crystals were diluted with 100 μL of dimethyl-sulfoxide (DMSO)/well and the absorbance at 570 nm was measured using a spectrophotometer (Thermo Plate TP-Reader, Waltham, MA, USA). Cytotoxicity was calculated using the following formula: Cytotoxicity (%) = [absorbance of cells treated with the compounds/absorbance of cells treated with DMSO) × 100]. The IC50 was determined for each compound and was defined as the concentration required to inhibit 50% of cell growth, compared to the control sample (cells treated with DMSO 0.05%).
(§3) Data were presented as the mean ± standard deviation (SD) and analyzed using GraphPad Prism 9.0 software (GraphPad Software Inc., La Jolla, CA, USA). All data were assayed in triplicate. Statistical analysis was performed using one-way ANOVA, Tukey´s HSD post hoc test and Student’s t-test. The IC50 was calculated using non-linear regression and the selectivity index (SI) was calculated by the ratio between the IC50 values corresponding to the non-tumor cell lineage (MCF-10A) and the IC50 values corresponding to the BC cell lines. Statistical significance was accepted at p values < 0.05.

MCF7 [1] = assay: MTT cell viability, MCF7; conditions: Homo sapiens, MCF7; 48 h, MTT, 1.25–160 μM; read-out: IC50 MCF7
Protocol: as §1, §2, §3

MDA-MB-231 = assay: MTT cell viability, MDA-MB-231
Protocol: as §1, §2, §3

MCF7 [2] = assay: Wound-healing migration assay
Protocol: Wound-healing analysis was applied to test cell migration ability. MCF7 cells were seeded in a 6-well plate at a density of 1 × 10^6 cells/well and, after confluence, a “wound” in the monolayer was introduced by a sterilized 200 μL pipet tip. Cells were washed with PBS and treated with compound 3 (1.125, 2.25 and 4.5 µM) for 24 or 48 h in a serum-free medium. Cells were photographed at 0 h, 24 or 48 h under a light microscope (Evos®, ThermoFisher Scientific, Waltham, MA, USA) at 10× objective using the same randomly chosen fields. The cell-free area was measured by ImageJ v. 1.54 g software and migration in the control well was considered to be 100%.

CDH1 = assay: qPCR, CDH1 expression in MCF7; conditions: vs untreated cells
Protocol: (§4) Total RNA was extracted using Trizol reagent (Invitrogen), according to the manufacturer’s protocol. The quality of extracted RNA was verified by the spectrophotometric readings at 260 and 280 nm (Nanodrop 1000-ThermoFisher), and the first strand of cDNA was synthesized from 1 µg of total RNA via reverse transcription using GoScript™ Reverse Transcription Mix (Promega, Madison, WI, EUA). qPCR analysis was performed using 5.0 μL of Power SYBR Green PCR Master Mix (Applied Biosystems, Carlsbad, CA, USA) and run on a StepOnePlus Systems (Applied Biosystems, Carlsbad, CA, USA) device with the following cycling parameters: 40 cycles of 95 °C for 10 s and 60 °C for 30 s. The comparative Cq was used to find the relative expression of CDH1 (E-caderina), ENTPD1 (ectonucleoside triphosphate diphosphohydrolase 1), ENTPD2 (ectonucleoside triphosphate diphosphohydrolase 2), ENTPD3 (ectonucleoside triphosphate diphosphohydrolase 3), ENTPD5 ([…]) and KRT10 (keratin 10) genes, after relative standard curve optimization. β-2-microglobulin (β2M) was used as a reference gene. The primer sequences are described in Table 3.

ENTPD2 = assay: qPCR, ENTPD2 expression in MCF7; conditions: vs untreated cells
Protocol: as §4

ENTPD3 = assay: qPCR, ENTPD3 expression in MCF7; conditions: vs untreated cells
Protocol: as §4

ENTPD5 = assay: qPCR, ENTPD5 expression in MCF7; conditions: vs untreated cells
Protocol: as §4

KRT10 = assay: qPCR, KRT10 expression in MCF7; conditions: vs untreated cells
Protocol: as §4

O=C(c1ccc(-n2cnnn2)cc1)N1CCN(S(=O)(=O)c2ccc(Cl)cc2)CC1 [Compound 3, (4-(1H-tetrazol-1-yl)phenyl)(4-((4-chlorophenyl)sulfonyl)piperazin-1-yl)methanone]
IC50 (MCF-10A): > 160 µM | IC50 (MCF7 [1]): 4.48 µM | IC50 (MDA-MB-231; Homo sapiens, MDA-MB-231, 48 h, MTT, 1.25–160 μM, read-out: IC50 MDA-MB-231): 83 µM | SI MDA-MB-231 (MDA-MB-231; IC50 MCF10A / IC50 MDA-MB-231): >1.93 | Migration of MCF7 cells (MCF7 [2]; 1.13, 2.25 and 4.50 µM, 48 h): significantly inhibited | Migration of MCF7 cells (MCF7 [2]; 2.25 and 4.50 µM, 24 h): significantly inhibited | Fold Change CDH1 mRNA (CDH1; MCF7, 1.125 µM): 1.874 | Fold Change CDH1 mRNA (CDH1; MCF7, 2.25 µM): 1.045 | Fold Change ENTPD2 mRNA (ENTPD2; MCF7, 1.125 µM): 1.374 | Fold Change ENTPD2 mRNA (ENTPD2; MCF7, 2.25 µM): 1.417 | Fold Change ENTPD2 mRNA (ENTPD2; MCF7, 4.5 µM): 1.109 | Fold Change ENTPD3 mRNA (ENTPD3; MCF7, 1.125 µM): 1.641 | Fold Change ENTPD3 mRNA (ENTPD3; MCF7, 2.25 µM): 1.074 | Fold Change ENTPD3 mRNA (ENTPD3; MCF7, 4.5 µM): 1.229 | Fold Change ENTPD5 mRNA (ENTPD5; MCF7, 1.125 µM): 2.046 | Fold Change ENTPD5 mRNA (ENTPD5; MCF7, 2.25 µM): 1.437 | Fold Change ENTPD5 mRNA (ENTPD5; MCF7, 4.5 µM): 1.306 | Fold Change KRT10 mRNA (KRT10; MCF7, 1.125 µM): 1.309 | Fold Change KRT10 mRNA (KRT10; MCF7, 2.25 µM): 1.913 | Fold Change KRT10 mRNA (KRT10; MCF7, 4.5 µM): 1.383

— article PMC11433764, “A Novel Compound from the Phenylsulfonylpiperazine Class: Evaluation of In Vitro Activity on Luminal Breast Cancer Cells” (Molecules, 2024)
